Source: patent publication US9302999B2, “Substituted triazoles as herbicides” (E. I. DU PONT DE NEMOURS AND COMPANY, priority 2012, dated 2016)
Like-named read-outs stand apart in the source and are kept apart here.

Legend:
Format in all cases: in vivo
[1] = system: crabgrass, large (large crabgrass, Digitaria sanguinalis); experiment: Test A pre-/postemergence: crabgrass, large; conditions: for pest or weed control at 125 g/ha / pest or weed control at 500 g/ha: Digitaria sanguinalis, 240 h
Method in brief: (§1)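 Soil medium was loam blended with sand; treatments pre- and postemergence were applied concurrently, postemergence at one- to two-leaf stage. Approximately ten days in greenhouse preceded visual comparison with untreated controls, scored 0 (no effect) to 100 (complete control).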

[2] = system: foxtail, giant (giant foxtail, Setaria faberii); experiment: Test A pre-/postemergence: foxtail, giant; conditions: for pest or weed control at 125 g/ha / pest or weed control at 500 g/ha: Setaria faberi, 240 h
Method in brief: as §1

[3] = system: pigweed (Amaranthus retroflexus); experiment: Test A pre-/postemergence: pigweed; conditions: for pest or weed control at 125 g/ha / pest or weed control at 500 g/ha: Amaranthus retroflexus, 240 h
Method in brief: as §1

[4] = system: velvetleaf (Abutilon theophrasti); experiment: Test A pre-/postemergence: velvetleaf; conditions: for pest or weed control at 125 g/ha / pest or weed control at 500 g/ha: Abutilon theophrasti, 240 h
Method in brief: as §1

[5] = system: ducksalad (Heteranthera limosa); experiment: Test B flooded paddy: ducksalad; conditions: Flood, applied to paddy water at 2-leaf stage, visually evaluated after 13 to 15 days
Method in brief: (§2)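 Flooded-pot test: compound dosed into 3 cm of standing water above soil when plants had two leaves. Visual control ratings (0–100) versus untreated plants after 13–15 d.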

[6] = system: barnyardgrass (Echinochloa crus-galli); experiment: Test B flooded paddy: barnyardgrass; conditions: Flood, applied to paddy water at 2-leaf stage, visually evaluated after 13 to 15 days
Method in brief: as §2

[7] = system: wild oat (Avena fatua); experiment: Test C pre-/postemergence: wild oat; conditions: Postemergence
Method in brief: (§3)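 Preemergence on seeds in loam/sand, postemergence on 2–18 cm (1–4-leaf) plants in peat-based medium; compounds in non-phytotoxic solvent with surfactant. After 13–15 days in greenhouse, visual rating versus controls, 0 (no effect) to 100 (complete control).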

[8] = system: foxtail, giant (giant foxtail, Setaria faberii); experiment: Test C pre-/postemergence: foxtail, giant
Method in brief: as §3

[9] = system: kochia (Kochia scoparia); experiment: Test C pre-/postemergence: kochia; conditions: Postemergence
Method in brief: as §3

[10] = system: ragweed (common ragweed, Ambrosia elation); experiment: Test C pre-/postemergence: ragweed
Method in brief: as §3

[11] = system: chickweed (common chickweed, Stellaria media); experiment: Test C postemergence: chickweed
Method in brief: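 Crop and weed plants were grown in peat-vermiculite medium and treated postemergence at the 1- to 4-leaf stage (2-18 cm tall). After 13-15 days in a greenhouse, each species was rated visually against untreated controls on a 0-100 scale (0 no effect, 100 complete control).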

[12] = 31 g ai/ha, scale 0 to 100 (0 no effect, 100 complete control)
[13] = 62 g ai/ha, scale 0 to 100 (0 no effect, 100 complete control)
[14] = 125 g ai/ha, scale 0 to 100, 0 no effect, 100 complete control
[15] = Postemergence, 31 g ai/ha, scale 0 to 100 (0 no effect, 100 complete control)
[16] = Postemergence, 62 g ai/ha, scale 0 to 100 (0 no effect, 100 complete control)
[17] = Postemergence, 125 g ai/ha, scale 0 to 100, 0 no effect, 100 complete control
[18] = Postemergence, 250 g ai/ha, scale 0 to 100
[19] = Preemergence, 31 g ai/ha, scale 0 (no effect) to 100 (complete control)
[20] = Preemergence, 62 g ai/ha, scale of 0 to 100, 0 is no effect, 100 is complete control
[21] = Preemergence, 125 g ai/ha, scale 0 to 100, 0 no effect, 100 complete control
[22] = Preemergence, 250 g ai/ha, scale 0 to 100, 0 no effect, 100 complete control
[23] = Postemergence, 125 g ai/ha, 0 to 100 scale, 0 is no effect, 100 is complete control
[24] = Postemergence, 500 g ai/ha, 0 to 100 scale, 0 is no effect, 100 is complete control
[25] = Preemergence, 125 g ai/ha, 0 to 100 scale where 0 is no effect and 100 is complete control
[26] = Preemergence, 500 g ai/ha, 0 to 100 scale (0 no effect, 100 complete control)
[27] = 250 g ai/ha, scale 0 to 100 (0 no effect, 100 complete control)

Compound: CCOc1nn(-c2ccc(C(F)(F)F)cc2)nc1Cc1ccnc(C(F)(F)F)c1 [Compound 164, 4-[[5-ethoxy-2-[4-(trifluoromethyl)phenyl]-2H-1,2,3-triazol-4-yl]methyl]-2-(trifluoromethyl)pyridine]
- pest or weed control at 125 g/ha ([1]; post-emergence, Postemergence, 125 g ai/ha, 0 to 100 scale, 0 is no effect, 100 is complete control, read-out: Plant response rating, Crabgrass, Large): 90%
- pest or weed control at 500 g/ha ([1]; post-emergence, Postemergence, 500 g ai/ha, 0 to 100 scale, 0 is no effect, 100 is complete control, read-out: Crabgrass, Large plant response rating): 90%
- pest or weed control at 125 g/ha ([1]; pre-emergence, Preemergence, 125 g ai/ha, 0 to 100 scale where 0 is no effect and 100 is complete control, read-out: Plant response rating, Crabgrass, Large): 100%
- pest or weed control at 500 g/ha ([1]; pre-emergence, Preemergence, 500 g ai/ha, 0 to 100 scale (0 no effect, 100 complete control), read-out: Plant response rating, Crabgrass, Large): 100%
- pest or weed control at 125 g/ha ([2]; post-emergence, Postemergence, 125 g ai/ha, 0 to 100 scale, 0 is no effect, 100 is complete control, read-out: Plant response rating, Foxtail, Giant): 90%
- pest or weed control at 500 g/ha ([2]; post-emergence, Postemergence, 500 g ai/ha, 0 to 100 scale, 0 is no effect, 100 is complete control, read-out: Foxtail, Giant plant response rating): 90%
- pest or weed control at 125 g/ha ([2]; pre-emergence, Preemergence, 125 g ai/ha, 0 to 100 scale where 0 is no effect and 100 is complete control, read-out: Plant response rating, Foxtail, Giant): 100%
- pest or weed control at 500 g/ha ([2]; pre-emergence, Preemergence, 500 g ai/ha, 0 to 100 scale (0 no effect, 100 complete control), read-out: Plant response rating, Foxtail, Giant): 100%
- pest or weed control at 125 g/ha ([3]; post-emergence, Postemergence, 125 g ai/ha, 0 to 100 scale, 0 is no effect, 100 is complete control, read-out: Plant response rating, Pigweed): 100%
- pest or weed control at 500 g/ha ([3]; post-emergence, Postemergence, 500 g ai/ha, 0 to 100 scale, 0 is no effect, 100 is complete control, read-out: Pigweed plant response rating): 100%
- pest or weed control at 125 g/ha ([3]; pre-emergence, Preemergence, 125 g ai/ha, 0 to 100 scale where 0 is no effect and 100 is complete control, read-out: Plant response rating, Pigweed): 100%
- pest or weed control at 500 g/ha ([3]; pre-emergence, Preemergence, 500 g ai/ha, 0 to 100 scale (0 no effect, 100 complete control), read-out: Plant response rating, Pigweed): 100%
- pest or weed control at 125 g/ha ([4]; post-emergence, Postemergence, 125 g ai/ha, 0 to 100 scale, 0 is no effect, 100 is complete control, read-out: Plant response rating, Velvetleaf): 100%
- pest or weed control at 500 g/ha ([4]; post-emergence, Postemergence, 500 g ai/ha, 0 to 100 scale, 0 is no effect, 100 is complete control, read-out: Velvetleaf plant response rating): 100%
- pest or weed control at 125 g/ha ([4]; pre-emergence, Preemergence, 125 g ai/ha, 0 to 100 scale where 0 is no effect and 100 is complete control, read-out: Plant response rating, Velvetleaf): 80%
- pest or weed control at 500 g/ha ([4]; pre-emergence, Preemergence, 500 g ai/ha, 0 to 100 scale (0 no effect, 100 complete control), read-out: Plant response rating, Velvetleaf): 100%
- Plant response rating, Ducksalad (0 to 100 scale, 0 is no effect, 100 is complete control) ([5]; 125 g ai/ha): 0
- Plant response rating, Barnyardgrass (0 to 100 scale, 0 is no effect, 100 is complete control) ([6]; 125 g ai/ha): 60
- Plant response rating, Oat, Wild [7, 12]: 5
- Plant response rating, Oat, Wild [7, 13]: 5
- Plant response rating, Oat, Wild [7, 14]: 5
- Plant response rating, Oat, Wild ([7]; 250 g ai/ha, scale 0 to 100): 10
- Plant response rating, Foxtail, Giant [8, 15]: 10
- Plant response rating, Foxtail, Giant [8, 16]: 20
- Plant response rating, Foxtail, Giant [8, 17]: 20
- Plant response rating, Foxtail, Giant [8, 18]: 35
- Plant response rating, Foxtail, Giant [8, 19]: 50
- Plant response rating, Foxtail, Giant [8, 20]: 65
- Plant response rating, Foxtail, Giant [8, 21]: 98
- Plant response rating, Foxtail, Giant [8, 22]: 100
- Plant response rating, Kochia [9, 12]: 40
- Plant response rating, Kochia [9, 13]: 40
- Plant response rating, Kochia [9, 14]: 40
- Plant response rating, Kochia ([9]; 250 g ai/ha, scale 0 to 100): 90
- Plant response rating, Ragweed [10, 15]: 50
- Plant response rating, Ragweed [10, 16]: 50
- Plant response rating, Ragweed [10, 18]: 60
- Plant response rating, Ragweed [10, 19]: 20
- Plant response rating, Ragweed [10, 20]: 20
- Plant response rating, Ragweed [10, 21]: 25
- Plant response rating, Ragweed [10, 22]: 30
- Plant response rating, Chickweed [11, 12]: 10
- Plant response rating, Chickweed [11, 13]: 40
- Plant response rating, Chickweed [11, 14]: 45
- Plant response rating, Chickweed ([11]; 250 g ai/ha, scale 0 to 100): 45

Compound: CCCc1nn(-c2ccc(F)cc2)nc1Oc1ccnc(C(F)(F)F)c1 [Compound 168]
- Plant response rating, Crabgrass, Large [1, 23]: 90
- Crabgrass, Large plant response rating [1, 24]: 90
- Plant response rating, Crabgrass, Large [1, 25]: 100
- Plant response rating, Crabgrass, Large [1, 26]: 100
- Plant response rating, Foxtail, Giant [2, 23]: 90
- Foxtail, Giant plant response rating [2, 24]: 90
- Plant response rating, Foxtail, Giant [2, 25]: 100
- Plant response rating, Foxtail, Giant [2, 26]: 100
- Plant response rating, Pigweed [3, 23]: 100
- Pigweed plant response rating [3, 24]: 100
- Plant response rating, Pigweed [3, 25]: 100
- Plant response rating, Pigweed [3, 26]: 100
- Plant response rating, Velvetleaf [4, 23]: 100
- Velvetleaf plant response rating [4, 24]: 100
- Plant response rating, Velvetleaf [4, 25]: 30
- Plant response rating, Velvetleaf [4, 26]: 90
- Plant response rating, Ducksalad (0 to 100 scale, 0 is no effect, 100 is complete control) ([5]; 250 g ai/ha): 80
- Plant response rating, Barnyardgrass (0 to 100 scale, 0 is no effect, 100 is complete control) ([6]; 250 g ai/ha): 80
- Plant response rating, Oat, Wild [7, 12]: 30
- Plant response rating, Oat, Wild [7, 13]: 45
- Plant response rating, Oat, Wild [7, 14]: 50
- Plant response rating, Oat, Wild [7, 27]: 60
- Plant response rating, Foxtail, Giant [8, 15]: 55
- Plant response rating, Foxtail, Giant [8, 16]: 65
- Plant response rating, Foxtail, Giant [8, 17]: 95
- Plant response rating, Foxtail, Giant [8, 18]: 95
- Plant response rating, Foxtail, Giant [8, 19]: 100
- Plant response rating, Foxtail, Giant [8, 20]: 100
- Plant response rating, Foxtail, Giant [8, 21]: 100
- Plant response rating, Foxtail, Giant [8, 22]: 100
- Plant response rating, Kochia [9, 12]: 90
- Plant response rating, Kochia [9, 13]: 90
- Plant response rating, Kochia [9, 14]: 90
- Plant response rating, Kochia [9, 27]: 90
- Plant response rating, Ragweed [10, 15]: 65
- Plant response rating, Ragweed [10, 16]: 65
- Plant response rating, Ragweed [10, 17]: 65
- Plant response rating, Ragweed ([10]; Postemergence, 250 g ai/ha, scale 0 to 100 (0 no effect, 100 complete control)): 80
- Plant response rating, Ragweed [10, 19]: 10
- Plant response rating, Ragweed [10, 20]: 30
- Plant response rating, Ragweed [10, 21]: 80
- Plant response rating, Ragweed [10, 22]: 80
- Plant response rating, Chickweed [11, 12]: 80
- Plant response rating, Chickweed [11, 13]: 80
- Plant response rating, Chickweed [11, 14]: 90
- Plant response rating, Chickweed ([11]; 250 g ai/ha, scale 0 to 100): 100
